According to patent publication US20200325505A1, “FILAMENTOUS FUNGI CAPABLE OF PRODUCING VERY LONG CHAIN FATTY ACIDS” (UT-Battelle, LLC, priority 2019, published 2020):

How the values were obtained:
[1] = test system: Mortierella elongata AG77; test: Nitrogen source utilisation in Biolog 96-well plates, formazan formation after tetrazolium addition; format: cell-based; settings: compound as nitrogen source
Protocol: Two 300 mL volumes of growth medium comprising 1 g/L KH2PO4, 1 g/L MgSO4 7H2O, 0.1 g/L CaCl2, 0.02 g/L FeNaEDTA, 0.1 g/L NaCl, and either 1 g/L NH4NO3 or 20 g/L sucrose were prepared. […] Aliquots of 200 μL of carbon-free medium or nitrogen-free medium were pipetted into each well of a set of 96-well plates previously prepared with lyophilized putative carbon or nitrogen sources (Biolog Inc., Hayward, Calif.). Inocula were prepared by perforating a culture of Mortierella elongata AG77 grown on 20 g/L potato dextrose agar with a 3 mm diameter cork borer and separating the surface mycelial mat from the solid growth medium using tweezers. Each well was inoculated with one inoculum. Cultures were incubated at 21° C. for 24 hours to allow metabolic changes to stabilize, and then 100 μL of 3 g/L tetrazolium chloride in water was added to each well.
Conclusions were based on rate and intensity of formazan formation using the 3-(4,5-dimethylthiazol-2-yl)-2,5-diphenyltetrazolium bromide ([…]) assay. “Metabolized” indicates more formazan formation than a control containing no nitrogen source, and “Toxic” indicates less formazan formation than a control containing no nitrogen source, “Metabolized” and “Toxic” assignments are mutually exclusive. In this example, a compound may be “Metabolized” or “Toxic,” but not both.

[2] = test system: Mortierella elongata AG77; test: Carbon source utilisation in Biolog 96-well plates, formazan formation after tetrazolium addition; format: cell-based; settings: for Metabolized: Metabolized = more formazan formation than a control containing no carbon source, observed visually at 2 h, 24 h, 148 h; for Carbon sources that Mortierella elongata AG77 can metabolize: summary of Table 3
Protocol: Two 300 mL volumes of growth medium comprising 1 g/L KH2PO4, 1 g/L MgSO4 7H2O, 0.1 g/L CaCl2, 0.02 g/L FeNaEDTA, 0.1 g/L NaCl, and either 1 g/L NH4NO3 or 20 g/L sucrose were prepared. Acidity was adjusted to 5.5 using NaOH and volumes of growth medium were autoclaved 30 min at 121° C. to sterilize. Aliquots of 200 μL of carbon-free medium or nitrogen-free medium were pipetted into each well of a set of 96-well plates previously prepared with lyophilized putative carbon or nitrogen sources (Biolog Inc., Hayward, Calif.). Inocula were prepared by perforating a culture of Mortierella elongata AG77 grown on 20 g/L potato dextrose agar with a 3 mm diameter cork borer and separating the surface mycelial mat from the solid growth medium using tweezers. Each well was inoculated with one inoculum. Cultures were incubated at 21° C. for 24 hours to allow metabolic changes to stabilize, and then 100 μL of 3 g/L tetrazolium chloride in water was added to each well. Formazan formation was observed visually at 2 h, 24 h, and 148 h.
Conclusions were based on rate and intensity of formazan formation using the 3-4,5-dimethylthiazol-2-yl)-2,5-diphenyltetrazolium bromide (MTT) assay. “Metabolized” indicates more formazan formation than a control containing no carbon source, and “Toxic” indicates less formazan formation than a control containing no carbon source. “Metabolized” and “Toxic” assignments are mutually exclusive. In this example, a compound may be “Metabolized” or “Toxic,” but not both.

[3] = compound as carbon source, Toxic = less formazan formation than a control containing no carbon source

Compound	Metabolized ([2]; compound as carbon source)	Toxic [2, 3]	Toxic [2]	further results
CC(O)C(N)=O (racemic) [D,L-Lactamide]	–	–	–	Metabolized ([1]; Metabolized = more formazan formation than a control containing no nitrogen source, observed visually at 2 h, 24 h, 148 h): no; Toxic ([1]; Toxic = less formazan formation than a control containing no nitrogen source): no
OC[C@H]1O[C@H](OC[C@H]2O[C@H](OC[C@H]3O[C@H](O[C@]4(CO)O[C@H](CO)[C@@H](O)[C@@H]4O)[C@H](O)[C@@H](O)[C@@H]3O)[C@H](O)[C@@H](O)[C@H]2O)[C@H](O)[C@@H](O)[C@H]1O [Stachyose]	no	no	–	–
NC(=O)CCC(=O)O [Succinamic Acid]	no	no	–	–
O=C(O)CCC(=O)O [Succinic Acid]	no	–	no	–
OC[C@H]1O[C@@](CO)(O[C@H]2O[C@H](CO)[C@@H](O)[C@H](O)[C@H]2O)[C@@H](O)[C@@H]1O [Sucrose]	no	–	no	–
O=C(O)CC(CC(=O)O)C(=O)O [Tricarballylic Acid]	yes	–	no	Carbon sources that Mortierella elongata AG77 can metabolize [2]: can metabolize
O=C(CO)[C@@H](O[C@H]1O[C@H](CO)[C@@H](O)[C@H](O)[C@H]1O)[C@H](O)[C@H](O)CO [Turanose]	no	no	–	–
OC[C@@H](O)[C@H](O)[C@@H](O)CO [Xylitol]	no	–	no	–
CO[C@H]1O[C@H](CO)[C@@H](O)[C@H](O)[C@H]1O [a-Methyl-D-Glucoside]	yes	no	–	Carbon sources that Mortierella elongata AG77 can metabolize [2]: can metabolize
OC[C@@H](O)[C@@H](O)CO [i-Erythritol]	no	no	–	–
O=C(O)Cc1cccc(O)c1 [m-Hydroxy Phenyl Acetic Acid]	no	no	–	–
O[C@H]1[C@H](O)[C@@H](O)[C@H](O)[C@@H](O)[C@H]1O [m-Inositol]	yes	no	–	Carbon sources that Mortierella elongata AG77 can metabolize [2]: can metabolize
O=C(O)C(O)C(O)C(=O)O (stereo not shown) [m-Tartaric Acid]	yes	–	–	Carbon sources that Mortierella elongata AG77 can metabolize [2]: can metabolize
O=C(O)Cc1ccc(O)cc1 [p-Hydroxy Phenyl Acetic Acid]	no	no	–	–
OC[C@H]1O[C@@H]2O[C@H]3[C@H](O)[C@@H](O)[C@@H](O[C@H]4[C@H](O)[C@@H](O)[C@@H](O[C@H]5[C@H](O)[C@@H](O)[C@@H](O[C@H]6[C@H](O)[C@@H](O)[C@@H](O[C@H]7[C@H](O)[C@@H](O)[C@@H](O[C@H]1[C@H](O)[C@H]2O)O[C@@H]7CO)O[C@@H]6CO)O[C@@H]5CO)O[C@@H]4CO)O[C@@H]3CO [α-Cyclodextrin]	no	no	–	–
OC[C@H]1O[C@H](O)[C@H](O)[C@@H](O)[C@@H]1O [α-D-Glucose]	no	–	no	–
OC[C@H]1O[C@@H](O[C@H]2[C@H](O)[C@@H](O)[C@@H](O)O[C@@H]2CO)[C@H](O)[C@@H](O)[C@H]1O [α-D-Lactose]	no	–	–	–
CCC(O)C(=O)O (stereo not drawn) [α-Hydroxy Butyric Acid]	no	no	–	–
O=C1CCC(C(=O)O)O1 (stereo not drawn) [α-Hydroxy Glutaric Acid-γ-Lactone]	no	no	–	–
CCC(=O)C(=O)O [α-Keto-Butyric Acid]	no	no	–	–
O=C(O)CCC(=O)C(=O)O [α-Keto-Glutaric Acid]	–	no	–	–
CCCC(=O)C(=O)O [α-Keto-Valeric Acid]	no	no	–	–
COC1OC(CO)C(O)C(O)C1O [α-Methyl-D-Galactoside]	yes	no	–	Carbon sources that Mortierella elongata AG77 can metabolize [2]: can metabolize

Compound	Metabolized ([2]; compound as carbon source)	Toxic [2, 3]	Toxic [2]	further results
COC1OC(CO)C(O)C(O)C1O [α-Methyl-D-Mannoside]	no	no	–	–
OC[C@H]1O[C@@H]2O[C@H]3[C@H](O)[C@@H](O)[C@@H](O[C@H]4[C@H](O)[C@@H](O)[C@@H](O[C@H]5[C@H](O)[C@@H](O)[C@@H](O[C@H]6[C@H](O)[C@@H](O)[C@@H](O[C@H]7[C@H](O)[C@@H](O)[C@@H](O[C@H]8[C@H](O)[C@@H](O)[C@@H](O[C@H]1[C@H](O)[C@H]2O)O[C@@H]8CO)O[C@@H]7CO)O[C@@H]6CO)O[C@@H]5CO)O[C@@H]4CO)O[C@@H]3CO [β-Cyclodextrin]	no	no	–	–
OC[C@H]1O[C@@H](O)[C@H](O)[C@H](O)[C@@H]1O [β-D-Allose]	no	–	no	–
CC(O)CC(=O)O (stereo not drawn) [β-Hydroxy Butyric Acid]	no	–	no	–
CO[C@@H]1O[C@H](CO)[C@@H](O)[C@H](O)[C@H]1O [β-Methyl-D-Galactoside]	yes	no	–	Carbon sources that Mortierella elongata AG77 can metabolize [2]: can metabolize
CO[C@@H]1O[C@H](CO)[C@@H](O)[C@H](O)[C@H]1O [β-Methyl-D-Glucoside]	no	no	–	–
CO[C@@H]1O[C@H](C(=O)O)[C@@H](O)[C@H](O)[C@H]1O [β-Methyl-D-Glucuronic Acid]	no	no	–	–
COC1OCC(O)C(O)C1O [β-Methyl-D-Xyloside]	no	no	–	–
OC[C@H]1O[C@@H]2O[C@H]3[C@H](O)[C@@H](O)[C@@H](O[C@H]4[C@H](O)[C@@H](O)[C@@H](O[C@H]5[C@H](O)[C@@H](O)[C@@H](O[C@H]6[C@H](O)[C@@H](O)[C@@H](O[C@H]7[C@H](O)[C@@H](O)[C@@H](O[C@H]8[C@H](O)[C@@H](O)[C@@H](O[C@H]9[C@H](O)[C@@H](O)[C@@H](O[C@H]1[C@H](O)[C@H]2O)O[C@@H]9CO)O[C@@H]8CO)O[C@@H]7CO)O[C@@H]6CO)O[C@@H]5CO)O[C@@H]4CO)O[C@@H]3CO [γ-Cyclodextrin]	no	no	–	–
O=C(O)CCCO [γ-Hydroxy Butyric Acid]	no	no	–	–
Chondroitin Sulfate C	–	–	no	–
Dextrin	–	–	no	–
Gelatin	–	–	no	–
Gentiobiose	no	–	–	–
Glycogen	–	–	no	–
Laminarin	–	–	no	–
Maltotriose	yes	no	–	Carbon sources that Mortierella elongata AG77 can metabolize [2]: can metabolize
Mannan	–	–	no	–
Pectin	–	–	no	–
Tween 20	yes	no	–	Carbon sources that Mortierella elongata AG77 can metabolize [2]: can metabolize
Tween 40	no	no	–	–
Tween 80	yes	no	–	Carbon sources that Mortierella elongata AG77 can metabolize [2]: can metabolize
